For experiment [1], the species on record is Homo sapiens. The experiment can be described thus: Binding affinity to human d[AGGG(TTAGGG)3] telomeric G-quadruplex DNA after 1 to 12 hrs by titrimetric analysis in presence of sodium ions.
Experiment [2] in a line: Binding affinity to d(G4C4)2 duplex DNA (unknown origin) by fluorescence-based assay.
For experiment [3], the species on record is Homo sapiens. The experiment can be described thus: Selectivity ratio of binding affinity for human d[AGGG(TTAGGG)3] telomeric G-quadruplex DNA in presence of sodium ions to binding affinity for human d[AGGG(TTAGGG)3] telomeric G-quadruplex DNA in presence of potassium ions.
For experiment [4], the species on record is Homo sapiens. The experiment can be described thus: Binding affinity to human d[AGGG(TTAGGG)3] telomeric G-quadruplex DNA after 1 to 12 hrs by titrimetric analysis in presence of potassium ions.
The species entered for experiment [5] is Homo sapiens. The experiment can be described thus: Binding affinity to human d[AGGG(TTAGGG)3] telomeric G-quadruplex DNA by fluorescence-based assay.
For experiment [6], the species on record is Homo sapiens. The experiment can be described thus: Binding affinity to human telomeric G-quadruplex DNA.

Calls of active or inactive are those of the source. No cut-off for these calls is given here.

For the molecule `CN1/C(=C/c2cc[n+](CCCCC(=O)NCCSC[C@H]3O[C@@H](O[C@@H]4[C@@H](O)[C@H](N)C[C@H](N)[C@H]4O[C@H]4O[C@H](CN)[C@@H](O)[C@H](O)[C@H]4N)[C@H](O)[C@@H]3O[C@H]3O[C@@H](CN)[C@@H](O)[C@H](O)[C@H]3N)c3ccccc23)Sc2ccccc21`, the K in the experiment listed under Homo sapiens [1] worked out at 9.6 ×10⁷ /M; in the experiment filed under Homo sapiens [4] it was 9.3 ×10⁶ /M. Also, the result in experiment [2] was Active. Moreover, the Selectivity ratio in the experiment listed under Homo sapiens [3] was 10. `NC[C@@H]1O[C@H](O[C@H]2[C@@H](O)[C@H](O[C@@H]3[C@@H](O)[C@H](N)C[C@H](N)[C@H]3O[C@H]3O[C@H](CN)[C@@H](O)[C@H](O)[C@H]3N)O[C@@H]2CSCCNC(=S)NCCCOCCCCOCCCNC(=S)NCc2ccc3c(c2)C(=O)c2ccccc2C3=O)[C@H](N)[C@@H](O)[C@@H]1O`: in the experiment filed under Homo sapiens [5], the outcome was inactive. Still for that read-out and setting: the value for `NC[C@@H]1O[C@H](O[C@H]2[C@@H](O)[C@H](O[C@@H]3[C@@H](O)[C@H](N)C[C@H](N)[C@H]3O[C@H]3O[C@H](CN)[C@@H](O)[C@H](O)[C@H]3N)O[C@@H]2CSCCNC(=S)NCc2ccc3c(c2)C(=O)c2ccccc2C3=O)[C@H](N)[C@@H](O)[C@@H]1O` was “inactive”.

In the case of `NC[C@@H]1O[C@H](O[C@H]2[C@@H](O)[C@H](O[C@@H]3[C@@H](O)[C@H](N)C[C@H](N)[C@H]3O[C@H]3O[C@H](CN)[C@@H](O)[C@H](O)[C@H]3N)O[C@@H]2CSCCNC(=S)NCCCCCCCCCCNC(=S)NCc2ccc3c(c2)C(=O)c2ccccc2C3=O)[C@H](N)[C@@H](O)[C@@H]1O`, the outcome in the experiment listed under Homo sapiens [5] was inactive. For the molecule `NC[C@@H]1O[C@H](O[C@H]2[C@@H](O)[C@H](O[C@@H]3[C@@H](O)[C@H](N)C[C@H](N)[C@H]3O[C@H]3O[C@H](CN)[C@@H](O)[C@H](O)[C@H]3N)O[C@@H]2CNC(=S)NCCCOCCCCOCCCNC(=S)NCc2ccc3c(c2)C(=O)c2ccccc2C3=O)[C@H](N)[C@@H](O)[C@@H]1O`, the result in the experiment listed under Homo sapiens [5] was inactive. As to `NC[C@@H]1O[C@H](O[C@H]2[C@@H](O)[C@H](O[C@@H]3[C@@H](O)[C@H](N)C[C@H](N)[C@H]3O[C@H]3O[C@H](CN)[C@@H](O)[C@H](O)[C@H]3N)O[C@@H]2CNC(=S)NCCCCCCCCCCNC(=S)NCc2ccc3c(c2)C(=O)c2ccccc2C3=O)[C@H](N)[C@@H](O)[C@@H]1O`, in the experiment listed under Homo sapiens [5], the result was inactive. Still for that read-out and setting: the value for `NC[C@@H]1O[C@H](O[C@H]2[C@@H](O)[C@H](O[C@@H]3[C@@H](O)[C@H](N)C[C@H](N)[C@H]3O[C@H]3O[C@H](CN)[C@@H](O)[C@H](O)[C@H]3N)O[C@@H]2CSCCNC(=S)NCCNC(=S)NCc2ccc3c(c2)C(=O)c2ccccc2C3=O)[C@H](N)[C@@H](O)[C@@H]1O` was “inactive”; that for `NCC1O[C@H](O[C@H]2[C@@H](O)[C@H](O[C@@H]3[C@@H](O)[C@H](N)C[C@H](N)[C@H]3O[C@H]3O[C@H](CN)[C@@H](O)[C@H](O)[C@H]3N)O[C@@H]2CNC(=S)NCc2ccc3c(c2)C(=O)c2ccccc2C3=O)[C@H](N)[C@@H](O)[C@@H]1O` (single isomer, unassigned) was “inactive”.

In the case of `NC[C@@H]1O[C@H](O[C@H]2[C@@H](O)[C@H](O[C@@H]3[C@@H](O)[C@H](N)C[C@H](N)[C@H]3O[C@H]3O[C@H](CN)[C@@H](O)[C@H](O)[C@H]3N)O[C@@H]2CNC(=S)NCCNC(=S)NCc2ccc3c(c2)C(=O)c2ccccc2C3=O)[C@H](N)[C@@H](O)[C@@H]1O`, the outcome in the experiment listed under Homo sapiens [5] was inactive.

Regarding `NC[C@@H]1O[C@H](O[C@H]2[C@@H](O)[C@H](O[C@@H]3[C@@H](O)[C@H](N)C[C@H](N)[C@H]3O[C@H]3O[C@H](CN)[C@@H](O)[C@H](O)[C@H]3N)O[C@@H]2CNC(=S)NCCCNC(=S)NCc2ccc3c(c2)C(=O)c2ccccc2C3=O)[C@H](N)[C@@H](O)[C@@H]1O`, in the experiment filed under Homo sapiens [5], the result was inactive. As to `NC[C@@H]1O[C@H](O[C@H]2[C@@H](O)[C@H](O[C@@H]3[C@@H](O)[C@H](N)C[C@H](N)[C@H]3O[C@H]3O[C@H](CN)[C@@H](O)[C@H](O)[C@H]3N)O[C@@H]2CNC(=S)Nc2ccc3c(c2)C(=O)c2ccccc2C3=O)[C@H](N)[C@@H](O)[C@@H]1O`, in the experiment listed under Homo sapiens [5], the result was inactive. Regarding `NC[C@@H]1O[C@H](O[C@H]2[C@@H](O)[C@H](O[C@@H]3[C@@H](O)[C@H](N)C[C@H](N)[C@H]3O[C@H]3O[C@H](CN)[C@@H](O)[C@H](O)[C@H]3N)O[C@@H]2CSCCNC(=S)NCCCNC(=S)NCc2ccc3c(c2)C(=O)c2ccccc2C3=O)[C@H](N)[C@@H](O)[C@@H]1O`, the result in the experiment filed under Homo sapiens [5] was inactive. For `NC[C@@H]1O[C@H](O[C@H]2[C@@H](O)[C@H](O[C@@H]3[C@@H](O)[C@H](N)C[C@H](N)[C@H]3O[C@H]3O[C@H](CN)[C@@H](O)[C@H](O)[C@H]3N)O[C@@H]2CSCCNC(=S)NCCCNC(=O)c2ccc3c(c2)C(=O)c2ccccc2C3=O)[C@H](N)[C@@H](O)[C@@H]1O`, the Ka in the experiment listed under Homo sapiens [6] came to 1.25 ×10⁷ /M.

Regarding `NC[C@@H]1O[C@H](O[C@H]2[C@@H](O)[C@H](O[C@@H]3[C@@H](O)[C@H](N)C[C@H](N)[C@H]3O[C@H]3O[C@H](CN)[C@@H](O)[C@H](O)[C@H]3N)O[C@@H]2CSCCNC(=S)Nc2ccc3c(c2)C(=O)c2ccccc2C3=O)[C@H](N)[C@@H](O)[C@@H]1O`, the outcome in the experiment filed under Homo sapiens [5] was inactive.

For the origin of these results see ChEMBL document CHEMBL3091391, “An assay for human telomeric G-quadruplex DNA binding drugs” (Bioorg Med Chem Lett, 2013).
